From US20240384268A1, “Oligonucleotides” (Hudson Institute of Medical Research, priority 2021, published 2024)
In the oligonucleotide strings, read from the 5' end, every base follows the letter of its sugar. An asterisk marks phosphorothioate; unmarked linkages are phosphodiester. Other units and linkages are bracketed, terminal groups are in braces. A string of capitals states the bases alone. d = 2'-deoxy (DNA); m = 2'-O-methyl

Target: T1, human TLR9 (Homo sapiens, UniProt Q9NR96)
T1 construct: HA; host or cells: 293XL-hTLR9-HA (HEK293)
T1 sequence (Q9NR96 26-1032): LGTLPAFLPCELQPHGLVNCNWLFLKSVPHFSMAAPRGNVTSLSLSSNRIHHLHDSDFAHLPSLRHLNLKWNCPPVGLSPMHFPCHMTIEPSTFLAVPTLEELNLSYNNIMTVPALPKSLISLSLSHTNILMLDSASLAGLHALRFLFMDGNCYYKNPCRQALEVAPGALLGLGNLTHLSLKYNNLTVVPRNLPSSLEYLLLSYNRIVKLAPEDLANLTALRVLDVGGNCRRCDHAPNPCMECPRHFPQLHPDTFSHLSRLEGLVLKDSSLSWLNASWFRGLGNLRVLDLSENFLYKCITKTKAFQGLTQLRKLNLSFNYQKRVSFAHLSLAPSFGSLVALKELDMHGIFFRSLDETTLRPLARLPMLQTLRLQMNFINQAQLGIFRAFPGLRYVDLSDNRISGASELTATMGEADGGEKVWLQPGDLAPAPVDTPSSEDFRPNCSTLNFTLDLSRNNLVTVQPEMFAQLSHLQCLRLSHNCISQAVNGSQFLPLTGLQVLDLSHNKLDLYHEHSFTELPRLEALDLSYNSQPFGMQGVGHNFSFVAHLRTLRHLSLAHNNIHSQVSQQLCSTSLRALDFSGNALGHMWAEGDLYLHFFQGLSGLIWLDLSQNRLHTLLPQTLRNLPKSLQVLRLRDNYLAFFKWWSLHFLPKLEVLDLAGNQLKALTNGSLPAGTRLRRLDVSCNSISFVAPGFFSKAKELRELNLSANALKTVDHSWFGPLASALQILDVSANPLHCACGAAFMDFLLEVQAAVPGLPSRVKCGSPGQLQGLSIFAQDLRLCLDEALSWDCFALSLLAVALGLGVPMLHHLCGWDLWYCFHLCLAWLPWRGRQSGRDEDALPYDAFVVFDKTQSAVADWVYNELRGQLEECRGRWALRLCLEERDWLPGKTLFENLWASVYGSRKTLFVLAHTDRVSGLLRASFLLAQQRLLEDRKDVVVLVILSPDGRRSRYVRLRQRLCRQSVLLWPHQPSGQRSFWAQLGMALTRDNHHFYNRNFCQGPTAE
Test: HEK-TLR9 NF-κB-luciferase reporter, ODN2006 stimulation
Format: cell-based
Conditions: for TLR9 100 nM: MOE-modified ASO at 100 nM; for TLR9 100 nM / TLR9 500 nM: averaged NF-κB-Luciferase relative to ODN2006 condition; for TLR9 500 nM: MOE-modified ASO at 500 nM; for TLR9-500 nM: averaged NF-κB-Luciferase relative to ODN2006: HEK-TLR9, 500 nM ASO 45 min, then 200 nM ODN2006 overnight, percentage of ODN2006 only

Substance | TLR9 100 nM | TLR9 500 nM | TLR9-500 nM: averaged NF-κB-Luciferase relative to ODN2006
GCTGACAAAGATTCACTGGT (antisense; 2'-MOE modified, pattern not given here) [HPRT-1353 MOE] | 0.653 | 0.654 | –
mC*mC*mA*mU*mG*T*C*C*C*A*G*G*C*C*T*mC*mC*mA*mG*mU (CCAUGTCCCAGGCCTCCAGU; sugars from the 5' end m5 d10 m5, all phosphorothioate, methylation of C not given here) [[CDKN2B-AS1]2227] | – | – | 48.79%
mU*mU*mG*mG*mC*C*T*G*T*G*G*A*T*G*C*mU*mU*mU*mG*mU (mU*mU*mG*mG*mC*dC*dT*dG*dT*dG*dG*dA*dT*dG*dC*mU*mU*mU*mG*mU) [[LINC-PINT]2673.1] | – | – | 40.71%
mA*mG*mC*mC*mG*A*A*C*A*G*A*A*G*G*A*mG*mC*mG*mU*mC (AGCCGAACAGAAGGAGCGUC; sugars from the 5' end m5 d10 m5, all phosphorothioate, methylation of C not given here) [[LINC-PINT]587 KL] | – | – | 57.46%
mU*mU*mG*mU*mG*A*A*A*A*G*A*T*T*A*T*mC*mU*mU*mC*mU (mU*mU*mG*mU*mG*dA*dA*dA*dA*dG*dA*dT*dT*dA*dT*mC*mU*mU*mC*mU) [[CDKN2B-AS1]2138] | – | – | 61.15%
mA*mA*mA*mA*mU*A*A*G*G*G*G*A*A*T*A*mG*mG*mG*mG*mA (mA*mA*mA*mA*mU*dA*dA*dG*dG*dG*dG*dA*dA*dT*dA*mG*mG*mG*mG*mA; antisense) [[CDKN2B-AS1]79] | – | – | 67.44%
AGTCGTAGTTGCTTCCTAAC (antisense; 2'-MOE modified, pattern not given here) [MB21D1-1181 MOE] | 0.527 | 0.341 | –
mC*mA*mG*mG*mC*C*T*C*C*A*G*T*G*T*C*mU*mU*mC*mU*mC (mC*mA*mG*mG*mC*dC*dT*dC*dC*dA*dG*dT*dG*dT*dC*mU*mU*mC*mU*mC; antisense) [[CDKN2B-AS1]2219] | – | – | 66.99%
mG*mU*mC*mC*mG*T*A*C*C*T*C*C*A*C*C*mC″mA*mC*mC*mG [[LINC-PINT]727.1] | – | – | 58.15%
mA*mG*mA*mA*mA*G*A*A*G*C*A*A*A*G*A*mU*mU*mC*mA*mA (AGAAAGAAGCAAAGAUUCAA; sugars from the 5' end m5 d10 m5, all phosphorothioate, methylation of C not given here) [[CDKN2B-AS1]1519] | – | – | 68.12%
TGGGCTGGAATCCGAGTTAT (antisense; 2'-MOE modified, pattern not given here) [EGFR-4705 MOE] | 0.443 | 0.241 | –
GGTTTTGGCTGGGATCAAGT (antisense; 2'-MOE modified, pattern not given here) [CAMSAP1-4697 MOE] | 0.381 | 0.200 | –
mC*mA*mC*mU*mG*T*A*T*T*T*T*A*T*T*A*mC*mA*mG*mA*mA (mC*mA*mC*mU*mG*dT*dA*dT*dT*dT*dT*dA*dT*dT*dA*mC*mA*mG*mA*mA; antisense) [[LINC-PINT]2990] | – | – | 117.42%
mU*mG*mU*mU*mU*C*C*C*C*G*G*A*G*A*G*mC*mA*mA*mU*mG (UGUUUCCCCGGAGAGCAAUG; antisense; sugars from the 5' end m5 d10 m5, all phosphorothioate, methylation of C not given here) [[LINC-PINT]501 KL] | – | – | 71.47%
mA*mG*mA*mU*mU*A*T*C*T*T*C*T*T*T*T*mA*mA*mU*mU*mU (AGAUUATCTTCTTTTAAUUU; sugars from the 5' end m5 d10 m5, all phosphorothioate, methylation of C not given here) [[CDKN2B-AS1]2130] | – | – | 78.72%
mU*mC*mU*mC*mU*C*T*G*G*T*C*C*C*A*T*mC*mC*mC*mU*mU (mU*mC*mU*mC*mU*dC*dT*dG*dG*dT*dC*dC*dC*dA*dT*mC*mC*mC*mU*mU; antisense) [[LINC-PINT]110] | – | – | 74.25%

Substance | TLR9 100 nM | TLR9 500 nM | TLR9-500 nM: averaged NF-κB-Luciferase relative to ODN2006
mU*mC*mC*mC*mA*T*C*C*C*T*T*C*T*G*C*mU*mG*mA*mC*mA (UCCCATCCCTTCTGCUGACA; sugars from the 5' end m5 d10 m5, all phosphorothioate, methylation of C not given here) [[LINC-PINT]101] | – | – | 59.80%
mU*mA*mA*mA*mA*T*A*A*G*G*G*G*A*A*T*mA*mG*mG*mG*mG (mU*mA*mA*mA*mA*dT*dA*dA*dG*dG*dG*dG*dA*dA*dT*mA*mG*mG*mG*mG) [[CDKN2B-AS1]80] | – | – | 64.58%
mA*mA*mU*mA*mU*C*T*G*C*T*G*C*C*C*A*mC*mC*mU*mU*mC (mA*mA*mU*mA*mU*dC*dT*dG*dC*dT*dG*dC*dC*dC*dA*mC*mC*mU*mU*mC; antisense) [[CDKN2B-AS1]832] | – | – | 70.72%
mG*mA*mU*mG*mG*T*T*C*C*A*G*T*C*C*C*mU*mC*mU*mU*mC (GAUGGTTCCAGTCCCUCUUC; antisense; sugars from the 5' end m5 d10 m5, all phosphorothioate, methylation of C not given here) [[LINC-PINT]1497.1] | – | – | 80.47%
CGGAGGTCTTGGCTTCGTGG (antisense; 2'-MOE modified, pattern not given here) [MB21D1-525 MOE] | 0.938 | 0.556 | –
mU*mG*mA*mC*mA*A*A*A*C*A*A*T*A*A*T*mA*mA*mC*mA*mG (mU*mG*mA*mC*mA*dA*dA*dA*dC*dA*dA*dT*dA*dA*dT*mA*mA*mC*mA*mG) [[LINC-PINT]384] | – | – | 53.61%
mG*mC*mA*mA*mG*G*C*A*G*A*G*A*A*A*C*mU*mC*mC*mA*mG (GCAAGGCAGAGAAACUCCAG; sugars from the 5' end m5 d10 m5, all phosphorothioate, methylation of C not given here) [[LINC-PINT]1315 KL] | – | – | 53.46%
mA*mA*mU*mU*mU*A*A*A*G*C*A*T*G*A*A*mU*mA*mU*mU*mA (mA*mA*mU*mU*mU*dA*dA*dA*dG*dC*dA*dT*dG*dA*dA*mU*mA*mU*mU*mA) [[CDKN2B-AS1]645] | – | – | 53.26%
TGGGTTACGGCTCAGTATGG (antisense; 2'-MOE modified, pattern not given here) [CAMSAP1-4295 MOE] | 0.478 | 0.228 | –
mU*mC*mU*mC*mC*A*T*G*T*C*C*C*A*G*G*mC*mC*mU*mC*mC (mU*mC*mU*mC*mC*dA*dT*dG*dT*dC*dC*dC*dA*dG*dG*mC*mC*mU*mC*mC; antisense) [[CDKN2B-AS1]2230] | – | – | 118.93%
mU*mC*mC*mC*mA*A*C*T*C*T*T*C*T*A*A*mC*mU*mC*mG*mU (mU*mC*mC*mC*mA*dA*dC*dT*dC*dT*dT*dC*dT*dA*dA*mC*mU*mC*mG*mU; antisense) [[LINC-PINT]1284 KL] | – | – | 86.73%
mG*mU*mC*mC*mC*A*G*G*C*C*T*C*C*A*G*mU*mG*mU*mC*mU (mG*mU*mC*mC*mC*dA*dG*dG*dC*dC*dT*dC*dC*dA*dG*mU*mG*mU*mC*mU; antisense) [[CDKN2B-AS1]2223] | – | – | 67.61%
mU*mC*mU*mG*mG*T*C*C*C*A*T*C*C*C*T*mU*mC*mU*mG*mC (UCUGGTCCCATCCCTUCUGC; antisense; sugars from the 5' end m5 d10 m5, all phosphorothioate, methylation of C not given here) [[LINC-PINT]106] | – | – | 56.60%
mC*mC*mA*mU*mC*C*C*T*T*C*T*G*C*T*G*mC*mC*mA*mA*mG (mC*mC*mA*mU*mC*dC*dC*dT*dT*dC*dT*dG*dC*dT*dG*mC*mC*mA*mA*mG; antisense) [ILING-PINT199] | – | – | 92.72%
GCCCATCCATGAGGTCCTGG (antisense; 2'-MOE modified, pattern not given here) [CTNN2B-2545 MOE] | 0.324 | 0.175 | –
mU*mG*mU*mG*mA*A*A*A*G*A*T*T*A*T*C*mU*mU*mC*mU*mU (UGUGAAAAGATTATCUUCUU; sugars from the 5' end m5 d10 m5, all phosphorothioate, methylation of C not given here) [[CDKN2B-AS1]2137] | – | – | 62.16%
